Reference: article PMC4321377, “Multiple signals modulate the activity of the complex sensor kinase TodS” (Microbial Biotechnology, 2014)

Molecular target: T1, TodS (Pseudomonas putida, UniProt E0X9C7)
T1 construct: full-length TodS, N-terminal His tag
Experiment: autophosphorylation assay with [γ-32P]ATP of purified TodS; ITC showed an exothermic chemical reaction
Type: biochemical

T1 sequence (E0X9C7 whole entry): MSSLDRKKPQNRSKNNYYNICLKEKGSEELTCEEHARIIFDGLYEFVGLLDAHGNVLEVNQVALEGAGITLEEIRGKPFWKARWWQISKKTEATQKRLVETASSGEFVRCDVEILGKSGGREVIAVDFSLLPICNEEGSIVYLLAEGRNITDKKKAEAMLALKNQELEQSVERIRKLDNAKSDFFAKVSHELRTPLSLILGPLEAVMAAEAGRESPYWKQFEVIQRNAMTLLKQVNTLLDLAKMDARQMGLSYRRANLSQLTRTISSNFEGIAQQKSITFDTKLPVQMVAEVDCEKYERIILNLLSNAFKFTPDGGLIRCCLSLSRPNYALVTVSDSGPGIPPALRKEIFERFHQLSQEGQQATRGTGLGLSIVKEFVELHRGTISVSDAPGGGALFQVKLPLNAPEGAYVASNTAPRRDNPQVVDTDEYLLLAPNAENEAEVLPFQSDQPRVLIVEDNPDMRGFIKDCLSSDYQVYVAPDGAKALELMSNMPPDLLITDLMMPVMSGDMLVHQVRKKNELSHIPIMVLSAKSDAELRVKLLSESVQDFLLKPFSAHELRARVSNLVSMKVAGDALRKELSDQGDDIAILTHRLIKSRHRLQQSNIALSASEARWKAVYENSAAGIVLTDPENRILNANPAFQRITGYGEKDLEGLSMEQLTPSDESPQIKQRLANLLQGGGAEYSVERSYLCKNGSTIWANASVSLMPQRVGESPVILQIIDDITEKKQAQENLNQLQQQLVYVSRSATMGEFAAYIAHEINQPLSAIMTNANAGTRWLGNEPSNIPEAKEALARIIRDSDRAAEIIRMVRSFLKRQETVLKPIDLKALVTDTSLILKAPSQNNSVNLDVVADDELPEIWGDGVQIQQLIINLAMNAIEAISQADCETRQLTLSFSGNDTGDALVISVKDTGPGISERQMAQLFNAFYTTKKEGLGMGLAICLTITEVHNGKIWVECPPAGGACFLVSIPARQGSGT

Structure (SMILES): CC1=CC(=O)c2ccccc2C1=O [menadione, 2-methyl-l,4-naphthoquinone]
- EC50: 170 ± 25 µM
